Target: T1, ALK5 kinase (Homo sapiens, UniProt P36897)
T1 construct: GST; purchased Thermo Fisher Scientific Solutions
T1 sequence (P36897 34-503): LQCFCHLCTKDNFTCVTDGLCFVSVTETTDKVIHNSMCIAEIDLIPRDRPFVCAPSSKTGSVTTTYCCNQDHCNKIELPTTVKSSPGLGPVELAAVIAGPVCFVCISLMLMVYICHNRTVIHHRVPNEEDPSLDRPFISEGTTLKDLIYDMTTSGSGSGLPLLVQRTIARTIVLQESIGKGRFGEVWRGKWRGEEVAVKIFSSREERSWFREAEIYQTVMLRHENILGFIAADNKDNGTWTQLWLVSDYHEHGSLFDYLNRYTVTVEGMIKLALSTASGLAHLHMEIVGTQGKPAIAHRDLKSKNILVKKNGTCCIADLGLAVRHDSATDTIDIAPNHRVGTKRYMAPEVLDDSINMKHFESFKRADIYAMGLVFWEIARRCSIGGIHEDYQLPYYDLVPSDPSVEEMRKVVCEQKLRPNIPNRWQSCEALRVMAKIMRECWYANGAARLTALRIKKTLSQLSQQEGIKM
Assay: Activity inhibition test on ALK5 enzyme (LanthaScreen Eu binding kinase assay)
Details: kinase tracer 178, 60 minutes at room temperature
Method in brief: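 TR-FRET tracer-displacement format with final 5 nM ALK5, 2 nM Eu-GST antibody and 10 nM kinase tracer 178. Compound dilution series ran 1 μM–0.0001 μM, incubated 60 min at room temperature with stirring. Fluorescence was read ([…]), and IC50 came from percent inhibition versus control.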

Row | Structure (SMILES) | IC50 [nM]
1 | CC(=O)N1CCN(c2ccc(NC(=O)c3cc(-c4ccc5nccnc5c4)n(-c4cccc(C)n4)n3)cc2)CC1 [Example 173, N-(4-(4-acetylpiperazin-1-yl)phenyl)-1-(6-methylpyridin-2-yl)-5-(quinoxalin-6-yl)-1H-pyrazole-3-carboxyamide] | 10 to 100
2 | Cc1cccc(-n2nc(C(=O)Nc3ccc(C#N)cc3)cc2-c2ccc3nccnc3c2)n1 [Example 174, N-(4-cyanophenyl)-1-(6-methylpyridin-2-yl)-5-(quinoxalin-6-yl)-1H-pyrazole-3-carboxyamide] | < 100
3 | Cc1cccc(-n2nc(C(=O)Nc3cccc(C#N)c3)cc2-c2ccc3nccnc3c2)n1 [Example 175, N-(3-cyanophenyl)-1-(6-methylpyridin-2-yl)-5-(quinoxalin-6-yl)-1H-pyrazole-3-carboxyamide] | < 100
4 | Cc1cccc(-n2nc(C(=O)Nc3ccc(CN4CCOCC4)cc3)cc2-c2ccc3nccnc3c2)n1 [Example 177, 1-(6-methylpyridin-2-yl)-N-(4-(morpholinomethyl)phenyl)-5-(quinoxalin-6-yl)-1H-pyrazole-3-carboxyamide] | ~100
5 | CC(=O)c1ccc(NC(=O)c2cc(-c3ccc4nccnc4c3)n(-c3cccc(C)n3)n2)cc1 [Example 178, N-(4-acetylphenyl)-1-(6-methylpyridin-2-yl)-5-(quinoxalin-6-yl)-1H-pyrazole-3-carboxyamide] | 10 to 100
6 | CC(=O)c1cccc(NC(=O)c2cc(-c3ccc4nccnc4c3)n(-c3cccc(C)n3)n2)c1 [Example 179, N-(3-acetylphenyl)-1-(6-methylpyridin-2-yl)-5-(quinoxalin-6-yl)-1H-pyrazole-3-carboxyamide] | < 100
7 | Cc1cccc(-n2nc(C(=O)Nc3ccc(C(F)(F)F)cc3)cc2-c2ccc3nccnc3c2)n1 [Example 180, 1-(6-methylpyridin-2-yl)-5-(quinoxalin-6-yl)-N-(4-(trifluoromethyl)phenyl)-1H-pyrazole-3-carboxyamide] | 100 to 1000
8 | Cc1cccc(-n2nc(C(=O)Nc3cccc(C(F)(F)F)c3)cc2-c2ccc3nccnc3c2)n1 [Example 181, 1-(6-methylpyridin-2-yl)-5-(quinoxalin-6-yl)-N-(3-(trifluoromethyl)phenyl)-1H-pyrazole-3-carboxyamide] | ~100
9 | CNC(=O)c1ccc(NC(=O)c2cc(-c3ccc4nccnc4c3)n(-c3cccc(C)n3)n2)cc1 [Example 182, N-(4-(methylcarbamoyl)phenyl)-1-(6-methylpyridin-2-yl)-5-(quinoxalin-6-yl)-1H-pyrazole-3-carboxyamide] | < 100
10 | Cc1cccc(-n2nc(C(=O)Nc3ccc(F)cc3)cc2-c2ccc3nccnc3c2)n1 [Example 183, N-(4-fluorophenyl)-1-(6-methylpyridin-2-yl)-5-(quinoxalin-6-yl)-1H-pyrazole-3-carboxyamide] | 10 to 100
11 | Cc1cccc(-n2nc(C(=O)Nc3cccc(F)c3)cc2-c2ccc3nccnc3c2)n1 [Example 184, N-(3-fluorophenyl)-1-(6-methylpyridin-2-yl)-5-(quinoxalin-6-yl)-1H-pyrazole-3-carboxyamide] | 10 to 100
12 | Cc1cccc(-n2nc(C(=O)Nc3ccccc3F)cc2-c2ccc3nccnc3c2)n1 [Example 185, N-(2-fluorophenyl)-1-(6-methylpyridin-2-yl)-5-(quinoxalin-6-yl)-1H-pyrazole-3-carboxyamide] | < 100
13 | Cc1cccc(-n2nc(C(=O)Nc3ccc(F)c(F)c3)cc2-c2ccc3nccnc3c2)n1 [Example 186, N-(3,4-difluorophenyl)-1-(6-methylpyridin-2-yl)-5-(quinoxalin-6-yl)-1H-pyrazole-3-carboxyamide] | 10 to 100
14 | Cc1cccc(-n2nc(C(=O)Nc3ccc(F)cc3F)cc2-c2ccc3nccnc3c2)n1 [Example 187, N-(2,4-difluorophenyl)-1-(6-methylpyridin-2-yl)-5-(quinoxalin-6-yl)-1H-pyrazole-3-carboxyamide] | 10 to 100
15 | Cc1cccc(-n2nc(C(=O)Nc3ccc(Cl)cc3)cc2-c2ccc3nccnc3c2)n1 [Example 189, N-(4-chlorophenyl)-1-(6-methylpyridin-2-yl)-5-(quinoxalin-6-yl)-1H-pyrazole-3-carboxyamide] | 10 to 100
16 | Cc1cccc(-n2nc(C(=O)Nc3ccccc3Cl)cc2-c2ccc3nccnc3c2)n1 [Example 190, N-(2-chlorophenyl)-1-(6-methylpyridin-2-yl)-5-(quinoxalin-6-yl)-1H-pyrazole-3-carboxyamide] | 100 to 1000
17 | Cc1cccc(-n2nc(C(=O)Nc3ccc(Br)cc3)cc2-c2ccc3nccnc3c2)n1 [Example 191, N-(4-bromophenyl)-1-(6-methylpyridin-2-yl)-5-(quinoxalin-6-yl)-1H-pyrazole-3-carboxyamide] | 10 to 100
18 | COc1ccc(NC(=O)c2cc(-c3ccc4nccnc4c3)n(-c3cccc(C)n3)n2)cn1 [Example 192, N-(6-methoxypyridin-3-yl)-1-(6-methylpyridin-2-yl)-5-(quinoxalin-6-yl)-1H-pyrazole-3-carboxyamide] | 10 to 100

Row | Structure (SMILES) | IC50 [nM]
19 | COc1ccc(CNC(=O)c2cc(-c3ccc4nccnc4c3)n(-c3cccc(C)n3)n2)cc1 [Example 193, N-(4-methoxybenzyl)-1-(6-methylpyridin-2-yl)-5-(quinoxalin-6-yl)-1H-pyrazole-3-carboxyamide] | ~100
20 | Cc1cccc(-n2nc(C(=O)NCc3ccc(C#N)cc3)cc2-c2ccc3nccnc3c2)n1 [Example 194, N-(4-cyanobenzyl)-1-(6-methylpyridin-2-yl)-5-(quinoxalin-6-yl)-1H-pyrazole-3-carboxyamide] | > 100
21 | CC(=O)c1cccc(CNC(=O)c2cc(-c3ccc4nccnc4c3)n(-c3cccc(C)n3)n2)c1 [Example 195, N-(3-acetylbenzyl)-1-(6-methylpyridin-2-yl)-5-(quinoxalin-6-yl)-1H-pyrazole-3-carboxyamide] | 10 to 100
22 | Cc1cccc(-n2nc(C(=O)NCc3cccc(F)c3)cc2-c2ccc3nccnc3c2)n1 [Example 197, N-(3-fluorobenzyl)-1-(6-methylpyridin-2-yl)-5-(quinoxalin-6-yl)-1H-pyrazole-3-carboxyamide] | 10 to 100
23 | Cc1cccc(-n2nc(C(=O)NCc3ccccc3F)cc2-c2ccc3nccnc3c2)n1 [Example 198, N-(2-fluorobenzyl)-1-(6-methylpyridin-2-yl)-5-(quinoxalin-6-yl)-1H-pyrazole-3-carboxyamide] | < 100
24 | Cc1cccc(-n2nc(C(=O)NCc3ccc(Cl)cc3)cc2-c2ccc3nccnc3c2)n1 [Example 199, N-(4-chlorobenzyl)-1-(6-methylpyridin-2-yl)-5-(quinoxalin-6-yl)-1H-pyrazole-3-carboxyamide] | > 100
25 | Cc1cccc(-n2nc(C(=O)NCc3cccc(Cl)c3)cc2-c2ccc3nccnc3c2)n1 [Example 200, N-(3-chlorobenzyl)-1-(6-methylpyridin-2-yl)-5-(quinoxalin-6-yl)-1H-pyrazole-3-carboxyamide] | 10 to 100
26 | Cc1cccc(-n2nc(C(=O)NCc3ccccc3Cl)cc2-c2ccc3nccnc3c2)n1 [Example 201, N-(2-chlorobenzyl)-1-(6-methylpyridin-2-yl)-5-(quinoxalin-6-yl)-1H-pyrazole-3-carboxyamide] | 10 to 100
27 | Cc1cccc(-n2nc(C(=O)Nc3ccccc3F)cc2-c2ccc3nccnc3c2)c1 [Example 202, N-(2-fluorophenyl)-5-(quinoxalin-6-yl)-1-(m-tolyl)-1H-pyrazole-3-carboxyamide] | > 1000
28 | COc1ccc(NC(=O)c2cc(-c3ccc4nccnc4c3)n(-c3cc(Cl)ccc3F)n2)cc1 [Example 203, 1-(5-chloro-2-fluorophenyl)-N-(4-methoxyphenyl)-5-(quinoxalin-6-yl)-1H-pyrazole-3-carboxyamide] | > 100
29 | CN(C)c1ccc(NC(=O)c2cc(-c3ccc4nccnc4c3)n(-c3cc(Cl)ccc3F)n2)cc1 [Example 204, 1-(5-chloro-2-fluorophenyl)-N-(4-(dimethylamino)phenyl)-5-(quinoxalin-6-yl)-1H-pyrazole-3-carboxyamide] | ~100
30 | COc1ccc(NC(=O)c2cc(-c3ccc4nccnc4c3)n(-c3cccc(C(F)(F)F)n3)n2)cc1 [Example 205] | > 100
31 | CN(C)c1ccc(NC(=O)c2cc(-c3ccc4nccnc4c3)n(-c3cccc(C(F)(F)F)n3)n2)cc1 [Example 206] | > 100
32 | COc1ccc(NC(=O)c2cc(-c3ccc4nccnc4c3)n(-c3cccc(Br)n3)n2)cc1 [Example 207, 1-(6-bromopyridin-2-yl)-N-(4-methoxyphenyl)-5-(quinoxalin-6-yl)-1H-pyrazole-3-carboxyamide] | 10 to 100
33 | CN(C)c1ccc(NC(=O)c2cc(-c3ccc4nccnc4c3)n(-c3cccc(Br)n3)n2)cc1 [Example 208, 1-(6-bromopyridin-2-yl)-N-(4-(dimethylamino)phenyl)-5-(quinoxalin-6-yl)-1H-pyrazole-3-carboxyamide] | 10 to 100
34 | Cc1cccc(-n2nc(C(=O)Nc3ccccc3F)cc2-c2ccnc3ccccc23)n1 [Example 209, N-(2-fluorophenyl)-1-(6-methylpyridin-2-yl)-5-(quinolin-4-yl)-1H-pyrazole-3-carboxyamide] | > 100
35 | COc1ccc(NC(=O)c2cc(-c3ccnc4ccccc34)n(-c3cccc(C)n3)n2)cc1 [Example 210, N-(4-methoxyphenyl)-1-(6-methylpyridin-2-yl)-5-(quinolin-4-yl)-1H-pyrazole-3-carboxyamide] | 10 to 100

— US10954232B2, “Pyrazole derivative as ALK5 inhibitor and uses thereof” (HANMI PHARMACEUTICAL CO., LTD., priority 2016, dated 2021)
